# Laboratory results from US20240182495A1, “ANTIBACTERIAL COMPOUNDS” (JANSSEN SCIENCES IRELAND UNLIMITED COMPANY, priority 2021, published 2024).
# Marks after values point to notes of the source that are not given here.
# System: Mycobacterium tuberculosis strain (EH4.0, GFP-expressing; Test 2: H37Rv)
# Assay: MIC determination against M. tuberculosis, Test 1 (and/or Test 2)
# Type: cell-based
# Settings: 7 days incubation, fluorescence
row,SMILES,pIC50
1,CCc1nc2ncc(C)cn2c1C(=O)NC1(c2ccc(-c3nc4n(n3)CCN(S(=O)(=O)C(F)(F)F)C4)cc2)CC1 [Compound 68],<6.3*

# Same assay, conditions: Mycobacterium tuberculosis, H37RV, 168 h, 7 days incubation, fluorescence
row,SMILES,IC50 [nM]
1,CCc1nc2sc(C)cn2c1C(=O)NCc1ccc(-c2nc3n(n2)CCN(S(=O)(=O)C(F)(F)F)C3)cc1 [Compound 36],16.2
2,CCc1nc2ncc(C)cn2c1C(=O)NCc1ccc(-c2nc3n(n2)CCNC3)cc1 [Compound 37],457
3,Cc1nc2sc(Cl)cn2c1C(=O)NCc1ccc(-c2nc3n(n2)CCN(S(=O)(=O)C(F)(F)F)C3)cc1 [Compound 38],282
4,CCc1nc2sc(Cl)cn2c1C(=O)NCc1ccc(-c2nc3n(n2)CCN(S(=O)(=O)C(F)(F)F)C3)cc1 [Compound 39],123
5,CCc1nc2ncc(C)cn2c1C(=O)NCc1ccc(-c2nc3n(n2)CCN(C(C)=O)C3)cc1 [Compound 40],501
6,CCc1nc2ncc(C)cn2c1C(=O)NCc1ccc(-c2nc3n(n2)CCN(S(=O)(=O)N(C)C)C3)cc1 [Compound 41],45.7
7,CCc1nc2ncc(C)cn2c1C(=O)NCc1ccc(-c2nc3n(n2)CCN(C(=O)C(F)(F)F)C3)cc1 [Compound 43],282
8,CCc1nc2nc3c(cn2c1C(=O)NCc1ccc(-c2nc4n(n2)CCN(S(=O)(=O)C(F)(F)F)C4)cc1)CCC3 [Compound 45],15.1
9,CCc1nc2ccc(C)cn2c1C(=O)NCc1ccc(-c2nc3n(n2)CCN(C(C)=O)C3)cc1 [Compound 46],282
10,CCc1nc2ccc(C)cn2c1C(=O)NCc1ccc(-c2nc3n(n2)CCN(S(=O)(=O)N2CCCC2)C3)cc1 [Compound 48],25.7
11,CCc1nc2ncc(C)cn2c1C(=O)NCc1ccc(-c2nc3n(n2)CCN(C)C3)cc1 [Compound 50],170
12,CCc1nc2ccc(C)cn2c1C(=O)NCc1ccc(-c2nc3n(n2)CCN(S(=O)(=O)N(C)C)C3)cc1 [Compound 51],41.7
13,CCc1nc2ccc(C)cn2c1C(=O)NCc1ccc(-c2nc3n(n2)CCNC3)cc1 [Compound 52],209
14,CCc1nc2ccc(C)cn2c1C(=O)NCc1ccc(-c2nc3n(n2)CCN(C(=O)C(F)(F)F)C3)cc1 [Compound 53],120
15,CCc1nc2ncc(C)cn2c1C(=O)NCc1ccc(-c2nc3n(n2)CCN(CCOC)C3)cc1 [Compound 54],132
16,CCc1nc2ccc(C)cn2c1C(=O)NCc1ccc(-c2nc3n(n2)CCN(CCOC)C3)cc1 [Compound 55],50.1
17,CCc1nc2ccc(C)cn2c1C(=O)NCc1ccc(-c2nc3n(n2)CCN(C)C3)cc1 [Compound 56],74.1
18,CCc1nc2ncc(C)cn2c1C(=O)NCc1ccc(-c2nc3n(n2)CCN(S(=O)(=O)C(F)(F)F)C3)s1 [Compound 57],26.3
19,CCc1nc2ncc(C)cn2c1C(=O)NCc1ccc(C2CN(c3nc4n(n3)CCN(S(=O)(=O)C(F)(F)F)C4)C2)cc1 [Compound 58],123
20,CCc1nc2ncc(C)cn2c1C(=O)NCc1ccc(C2CCN(c3nc4n(n3)CCN(S(=O)(=O)C(F)(F)F)C4)CC2)cc1 [Compound 59],110
21,CCc1nc2ncc(C)cn2c1C(=O)NCc1ccc(N2CCC(c3nc4n(n3)CCN(S(=O)(=O)C(F)(F)F)C4)CC2)cc1 [Compound 60],93.3
22,CCc1nc2ncc(C)cn2c1C(=O)NCc1ccc(-c2nc3n(n2)CCN(CCC#N)C3)cc1 [Compound 61],389
23,CCc1nc2ccc(C)cn2c1C(=O)NCc1ccc(-c2nc3n(n2)CCN(CCC#N)C3)cc1 [Compound 62],174
24,CCc1nc2n(c1C(=O)NCc1ccc(-c3nc4n(n3)CCN(S(=O)(=O)C(F)(F)F)C4)cc1)CCOC2 [Compound 63],191
25,CCc1nc2ncc(C)cn2c1C(=O)NCc1ncc(-c2nc3n(n2)CCN(S(=O)(=O)C(F)(F)F)C3)s1 [Compound 64],132
26,CCc1nc2n(c1C(=O)NCc1ccc(-c3nc4n(n3)CCN(S(=O)(=O)C(F)(F)F)C4)cc1)CCN(C)C2 [Compound 65],331
27,CCc1nc2ncc(C)cn2c1C(=O)NCc1cccc(-c2nc3n(n2)CCN(S(=O)(=O)C(F)(F)F)C3)c1 [Compound 67],162
